According to patent US20020009527A1, “CONTAMINATION-RESISTANT ANIMAL FEEDSTUFFS” (BOBBY J BLAND, priority 1992, published 2002):
Read-outs that look alike come from different tables or passages of the source.

Experiments:
Escherichia coli [1] = details: fine mist (43 microns); all quantity levels
Method: A sterilized poultry starter mash (500 grams/treatment quantity level) was treated with 37 wt. % formaldehyde solution in quantities of 0.66, 1.33 and 2.00 pounds dry weight of formaldehyde per ton. One set of samples was treated with a coarse spray (270 microns) at 1.8 gal/hr and another was treated with fine mist (43 microns) at 25.5 gal/hr. Each sample of 500 grams was challenged with 20 ml of a liquid inoculum of Escherichia coli (10^6 colonies/ml) one week after treatment.

E. coli = test system: E. coli
Method: The term “resistant to contamination by pathogenic bacteria” means that a challenge with 1000 colonies per gram of feed results in death of substantially all the bacteria within 48 to 72 hours. […] Sampling procedures for obtaining representative samples of feed are described in Example 16, so that the coefficient of variation can be readily determined.

[2] = 1.0 pound formaldehyde (dry wt.) per ton of feed
Method: Chickens (1,400,000 broilers) were raised with steam pelletized formaldehyde-treated feed and 250,000 broilers were raised with conventional steam pelletized feed. This test was conducted from the time the chicks were a day old until market weight which is 7 to 8 weeks.

Salmonella typhimurium = details: hydraulic nozzle; 1.32 lb/ton; inoculated after 7 days storage; 24 h incubation
Method: Poultry starter mash was distributed in one gallon glass jars (2000 g/jar). The mash was autoclaved at 121° C. and 15 psi for one hour on two consecutive days. The sterile poultry starter mash was mixed thoroughly and subsampled using a Humboldt sample splitter to obtain seven 500 g subsamples. […] After treatment the samples were stored in paper bags at 24° C. prior to the recontamination.
An isolate of Salmonella typhimurium was obtained from poultry feed and was serotyped by the United States Department of Agriculture (USDA) National Veterinary Services Laboratory in Ames, Iowa. The isolate was used to inoculate milk dilution bottles containing 90 ml of nutrient broth. The inoculated bottles were incubated at 35° C. for 18-24 hours. After incubation, the contents of several milk dilution were combined in a sterile 1000 ml Erlenmeyer flask and mixed. The level of Salmonella typhimurium was determined by serially diluting the nutrient broth with buffered phosphate solution and the dilutions plated on modified lysine iron agar. The inoculated plates were incubated at 35° C. for 18-24 hours. After incubation, the number of Salmonella typhimurium colonies was counted.
After 7 days of storage, the subsamples of poultry starter mash (500 g) were individually inoculated with 20 ml of the nutrient broth culture of S. typhimurium (10^3 colonies/gram). […]

Escherichia coli [3] = test system: Escherichia coli
Method: Poultry starter mash (8000 g) was distributed in one gallon glass jars (2000 g/jar). The mash was autoclaved at 121° C. and 15 psi for one hour on two consecutive days. The sterile poultry starter mash was mixed thoroughly and subsampled using a Humboldt sample splitter to obtain seven 500 g subsamples. […] After treatment the samples were stored at 24° C. for 7 days prior to the recontamination.
The identity of an isolate of Escherichia coli obtained from poultry feed was confirmed by biochemical and serological tests. The isolate was used to inoculate milk dilution bottles containing 90 ml of nutrient both. The inoculated bottles were incubated at 35° C. for 18-24 hours. After incubation the contents of several milk dilution bottles were combined in a sterile 1000 ml Erlenmeyer flask, mixed and the level of Escherichia coli determined by serially diluting the nutrient broth with buffered phosphate. The dilutions were plated onto MacConkey's agar. The inoculated plates were incubated at 35° C. for 18-24 hours. After incubation, the number of E. coli colonies was counted.
After seven days of storage, the subsamples (500 g) were individually inoculated with 20 ml of a nutrient broth culture of E. coli (10^6 colonies/ml). The inoculated feed was transferred to sterile one quart containers with screw cap lids. After 24 hours incubation at 25° C., the treatment samples were split to obtain log subsamples. Each subsample was placed into a milk dilution bottle containing 90 ml of buffered phosphate. The bottles were placed on a wrist action shaker and agitated for 30 minutes. The samples were serially diluted with buffered phosphate and the dilutions plated onto MacConkey's agar (MA) or Hektoen Enteric agar (HEA). The inoculated plates were incubated at 35° C. for 18-24 hours. After incubation, the number of E. coli colonies was counted. […] In this procedure a 25 g subsample was incubated in 225 ml lactose broth for 18-20 hours at 35° C. The inoculated broth was streaked on plates of MacConkey's agar and incubated for 24 hours at 35° C.
The procedure of Example 8 was repeated using an inoculum containing 10^4 colonies/ml of E. coli.

## C=O [Formaldehyde, formaldehyde]
Escherichia coli [1]
  further time free of detectable E. coli (test then discontinued): 60 days
  time after inoculation until free of detectable E. coli: ≤ 48 h
E. coli; 2 lbs. dry wt. of formaldehyde/ton, 2.0% CV
  resistance to contamination (time): about 60 days
E. coli; 4 lbs. dry wt. of formaldehyde per ton of finished feed, 7% CV
  resistance to contamination (time): about 30 days
[2]; broilers, day old to market weight (7 to 8 weeks)
  MORTALITY: 6%
[2]; pounds of feed required to produce one pound live weight gain
  FEED CONVERSION: 2.25
Salmonella typhimurium
  S. typhimurium colonies per gram of feed: 2.94 × 10^2 COLONIES/GRAM
Escherichia coli [3]; atomizing nozzle, 0.66 lb/ton, inoculum 10^6 colonies/ml (Example 8)
  E. coli colonies/g: 1.11 × 10^2 COLONIES/GRAM
Escherichia coli [3]; hydraulic nozzle, 0.66 lb/ton, inoculum 10^4 colonies/ml (Example 9)
  E. coli colonies/g: 8.78 × 10^3 COLONIES/GRAM
Escherichia coli [3]; hydraulic nozzle, 0.66 lb/ton, inoculum 10^6 colonies/ml (Example 8)
  E. coli colonies/g: 2.74 × 10^5 COLONIES/GRAM
Escherichia coli [3]; hydraulic nozzle, 1.32 lb/ton, inoculum 10^4 colonies/ml (Example 9)
  E. coli colonies/g: 4.33 × 10^3 COLONIES/GRAM
Escherichia coli [3]; hydraulic nozzle, 1.32 lb/ton, inoculum 10^6 colonies/ml (Example 8)
  E. coli colonies/g: 3.67 × 10^3 COLONIES/GRAM
Escherichia coli [3]; hydraulic nozzle, 2.00 lb/ton, inoculum 10^4 colonies/ml (Example 9)
  E. coli colonies/g: 3.33 × 10^2 COLONIES/GRAM
Escherichia coli [3]; hydraulic nozzle, 2.00 lb/ton, inoculum 10^6 colonies/ml (Example 8)
  E. coli colonies/g: 1.04 × 10^2 COLONIES/GRAM
